Measured values taken from patent US7452894B2, “Purine derivatives as purinergic receptor antagonists” (Vernalis Research Limited, priority 2001, dated 2008).

melting point | SMILES
246.2 to 248 °C | Cc1ccc(-c2nc(N)nc3[nH]cnc23)nc1 [Example 241, 6-(5-Methyl-2-pyridinyl)-1H-purine-2-amine]
247 to 252 °C | C[C@H](N)Cn1cnc2c(-c3ccco3)nc(N)nc21 [Example 251, (2S)-9-(2-Amino-1-propyl)-6-(2-furyl)-9H-purine-2-amine]
> 330 °C (dec.) | O=C(Nc1ccccc1)Nc1nc(-c2ccco2)c2nc[nH]c2n1 [Example 23, N-(6-(2-Furyl)-1H-purine-2-yl)-N'-phenylurea]
281.3 to 283.2 °C | Nc1nc(-c2ccco2)c2ncn(CC(=O)Nc3ccncc3)c2n1 [Example 142, 2-Amino-6-(2-furyl)-N-(4-pyridyl)-9H-purine-9-acetamide]
190.5 to 190.6 °C | Nc1nc(-c2cncs2)c2ncn(Cc3ccccc3F)c2n1 [Example 267, 9-(2-Fluorobenzyl)-6-(thiazol-5-yl)-9H-purine-2-amine]
247 to 248 °C | Cc1ccsc1-c1nc(N)nc2[nH]cnc12 [Example 150, 6-(3-Methyl-2-thienyl)-1H-purine-2-amine]
235 to 236 °C (dec.) | CNc1nc(-c2ccco2)c2nc[nH]c2n1 [Example 18, 6-(2-Furyl)-N-methyl-1H-purine-2-amine]
160 °C (dec.) | Nc1nc(-c2ccco2)c2ncn(CCN3C(=O)c4ccccc4C3=O)c2n1 [Example 174, 6-(2-Furyl)-9-(2-phthalimidoethyl)-9H-purine-2-amine]
290.6 to 290.7 °C | Nc1nc(-c2ccco2)c2ncn(Cc3ccccc3[N+](=O)[O-])c2n1 [Example 197, 6-(2-Furyl)-9-(2-nitrobenzyl)-9H-purine-2-amine]
> 300 °C (dec.) | Nc1nc(-c2ccco2)c2ncn(C(=O)C3CCCCC3)c2n1 [Example 28, 9-Cyclohexylcarbonyl-6-(2-furyl)-9H-purine-2-amine]
295 °C (dec.) | CC(C)(C)NC(=O)n1cnc2c(-c3ccco3)nc(N)nc21 [Example 21, 2-Amino-N-tert-butyl-6-(2-furyl)-9H-purine-9-carboxamide]
> 300 °C (dec.) | Nc1nc(-c2ccco2)c2ncn(C(=O)N3CCCC3)c2n1 [Example 29, 6-(2-Furyl)-9-(1-pyrrolidinylcarbonyl)-9H-purine-2-amine]
282.4 to 282.6 °C | Cc1noc(C)c1Cn1cnc2c(-c3ccco3)nc(N)nc21 [Example 229, 9-(3,5-Dimethylisoxazol-4-ylmethyl)-6-(2-furyl)-9H-purine-2-amine]
299.2 to 299.3 °C | Cc1ccccc1NC(=O)Cn1cnc2c(-c3ccco3)nc(N)nc21 [Example 140, 2-Amino-6-(2-furyl)-N-(2-methylphenyl)-9H-purine-9-acetamide]
> 250 °C (dec.) | CC(C)(C)OC(=O)n1cnc2c(-c3cccs3)nc(N)nc21 [Example 78, tert-Butyl 2-amino-6-(2-thienyl)-9H-purine-9-carboxylate]
287.2 to 287.8 °C | Nc1nc(-c2ccco2)c2ncn(CC(=O)NCc3ccccc3)c2n1 [Example 86, 2-Amino-N-benzyl-6-(2-furyl)-9H-purine-9-acetamide]
258.7 to 260.1 °C | CCCNC(=O)Cn1cnc2c(-c3ccco3)nc(N)nc21 [Example 124, 2-Amino-6-(2-furyl)-N-n-propyl-9H-purine-9-acetamide]
> 250 °C (dec.) | Nc1nc(-c2cc3ccccc3o2)c2ncn(C(=O)NCc3ccccc3)c2n1 [Example 128, 2-Amino-6-(benzofuran-2-yl)-N-benzyl-9H-purine-9-carboxamide]
> 250 °C (dec.) | Nc1nc(-c2ccco2)c2ncn(CC(=O)NCCO)c2n1 [Example 96, 2-Amino-6-(2-furyl)-N-(2-hydroxyethyl)-9H-purine-9-acetamide]
291.9 to 292.1 °C | Nc1nc(-c2ccco2)c2ncn(CC(=O)NCc3ccccc3F)c2n1 [Example 237, 2-Amino-N-(2-fluorobenzyl)-6-(2-furyl)-9H-purine9-acetamide]
242.5 to 243.6 °C | Nc1nc(-c2ccco2)c2ncn(CC(=O)Nc3ccccn3)c2n1 [Example 122, 2-Amino-6-(2-furyl)-N-(2-pyridyl)-9H-purine-9-acetamide]
190.4 to 190.5 °C | CC(C)(C)OC(=O)n1ccc2c(Cn3cnc4c(-c5ccco5)nc(N)nc43)cccc21 [Example 270, tert-butyl 4-(2-amino-6-(2-furyl)-1H-purine-9-ylmethyl)indole-1-carboxylate]
> 303 °C (dec.) | Clc1nc(-c2ccco2)c2nc[nH]c2n1 [Example 8, 2-Chloro-6-(2-furyl)-1H-purine]
302.5 to 304.8 °C | N#Cc1cccc(Cn2cnc3c(-c4ccco4)nc(N)nc32)c1 [Example 177, 9-(3-Cyanobenzyl)-6-(2-furyl)-9H-purine-2-amine]
143.2 to 144.1 °C | CC(C)(C)OC(=O)n1cnc2c(-c3ccco3)nc(N)nc21 [Example 14, tert-Butyl 2-amino-6-(2-furyl)-9H-purine-9-carboxylate]
> 300 °C (dec.) | CC(=O)n1cnc2c(-c3ccco3)nc(N)nc21 [Example 34, 9-Acetyl-6-(2-furyl)-9H-purine-2-amine]

melting point | SMILES
301.1 to 302.1 °C | Nc1nc(-c2ccco2)c2ncn(Cc3ccc(C(=O)O)cc3)c2n1 [Example 216, 4-(2-Amino-6-(2-furyl)-9H-purine-9-ylmethyl)benzoic acid]
171.2 to 171.3 °C | CS(=O)(=O)Nc1cccc(Cn2cnc3c(-c4ccco4)nc(N)nc32)c1 [Example 217, 6-(2-Furyl)-9-(3-methanesulphonylaminobenzyl)-9H-purine-2-amine]
279.9 to 281 °C | COc1ccccc1CNC(=O)Cn1cnc2c(-c3ccco3)nc(N)nc21 [Example 236, 2-Amino-6-(2-furyl)-N-(2-methoxybenzyl)-9H-purine-9-acetamide]
158.7 to 160.1 °C | C=CCNc1nc(-c2ccco2)c2nc[nH]c2n1 [Example 17, N-Allyl-6-(2-furyl)-1H-purine-2-amine]
254.7 to 255.3 °C | CS(=O)(=O)Nc1ccccc1Cn1cnc2c(-c3ccco3)nc(N)nc21 [Example 210, 6-(2-Furyl)-9-(2-methanesulphonylaminobenzyl)-9H-purine-2-amine]
205.3 to 205.4 °C | COc1cc(Cn2cnc3c(-c4ccco4)nc(N)nc32)cc(OC)c1 [Example 219, 9-(3,5-Dimethoxybenzyl)-6-(2-furyl)-9H-purine-2-amine]
285.6 to 286.4 °C | Nc1nc(-c2ccco2)c2ncn(CC(=O)Nc3cccnc3)c2n1 [Example 143, 2-Amino-6-(2-furyl)-N-(3-pyridyl)-9H-purine-9-acetamide]
177.4 to 177.8 °C | O=C(NC1CCCCC1)n1cnc2c(-c3ccco3)nc(Cl)nc21 [Example 31, 2-Chloro-N-cyclohexyl-6-(2-furyl)-9H-purine-9-carboxamide]
130.9 to 131.5 °C | OC[C@H]1CCCN1c1nc(-c2ccco2)c2nc[nH]c2n1 [Example 9, (2R)-1-(6-(2-Furyl)-1H-purine-2-yl)-2-pyrrolidinemethanol]
300 °C (dec.) | Cn1cncc1-c1nc(N)nc2[nH]cnc12 [Example 209, 6-(1-Methyl-1H-imidazol-5-yl)-1H-purine-2-amine]
278.5 to 280.4 °C | COc1cccc(NC(=O)Cn2cnc3c(-c4ccco4)nc(N)nc32)c1 [Example 231, 2-Amino-6-(2-furyl)-N-(3-methoxyphenyl)-9H-purine-9-acetamide]
227.1 to 228.1 °C | OCCNc1nc(-c2ccco2)c2nc[nH]c2n1 [Example 5, N-(2-Hydroxyethyl)-6-(2-furyl)-1H-purine-2-amine]
218.2 to 218.5 °C | Nc1nc(-c2ccco2)c2ncn(Cc3cccc(F)c3)c2n1 [Example 203, 9-(3-Fluorobenzyl)-6-(2-furyl)-9H-purine-2-amine]
> 300 °C (dec.) | Nc1nc(-c2ccco2)c2ncn(CC(=O)O)c2n1 [Example 73, 2-Amino-6-(2-furyl)-9H-purine-9-acetic acid]
247.3 to 247.4 °C | Nc1nc(-c2ccco2)c2ncn(CC(=O)NCCc3ccccc3)c2n1 [Example 123, 2-Amino-6-(2-furyl)-N-(2-phenylethyl)-9H-purine-9-acetamide]
112 to 113 °C | CSc1nc(-c2ccco2)c2ncn(C(=O)OC(C)(C)C)c2n1 [Example 12, tert-Butyl 6-(2-furyl)-2-methylthio-9H-purine-9carboxylate]
177.6 to 178.2 °C | Nc1nc(-c2ccco2)c2ncn(C(=O)NC3CCCCC3)c2n1 [Example 19, 2-Amino-N-cyclohexyl-6-(2-furyl)-9H-purine-9-carboxamide]
185.5 to 186 °C | C=CCNc1nc(-c2ccco2)c2ncn(COCC[Si](C)(C)C)c2n1
321.5 to 321.6 °C | NC(=O)Cn1cnc2c(-c3ccco3)nc(N)nc21 [Example 87, 2-Amino-6-(2-furyl)-9H-purine-9-acetamide]
243.2 to 243.8 °C | Nc1nc(-c2ccco2)c2ncn(Cc3cccc(C(=O)NCc4ccccc4)c3)c2n1 [Example 226, 3-(2-Amino-6-(2-furyl)-9H-purine-9-ylmethyl)-N-benzylbenzamide]
160.1 to 160.8 °C | CNc1nc(-c2ccco2)c2ncn(COCC[Si](C)(C)C)c2n1
299.8 °C | Cc1ccc(-c2nc(N)nc3c2ncn3Cc2ccccc2F)nc1 [Example 243, 9-(2-Fluorobenzyl)-6-(5-methyl-2-pyridinyl)-9H-purine-2-amine]
> 300 °C (dec.) | CC(C)COC(=O)n1cnc2c(-c3ccco3)nc(N)nc21 [Example 20, 2-Methylpropyl 2-amino-6-(2-furyl)-9H-purine-9-carboxylate]
79.6 °C (dec.) | COc1nc(-c2ccco2)c2ncn(COCC[Si](C)(C)C)c2n1
125.9 to 126.4 °C | C[Si](C)(C)CCOCn1cnc2c(-c3ccco3)nc(NCCO)nc21
> 305 °C (dec.) | CC(C)(C)OC(=O)n1cnc2c(-c3ccco3)nc(Cl)nc21 [Example 7, tert-Butyl 2-chloro-6-(2-furyl)-9H-purine-9-carboxylate]
